The results in this text go back to article PMC7902834, “A rotary mechanism for allostery in bacterial hybrid malic enzymes” (Nature Communications, 2021).

pIC50, pKi: −log10 of the molar value.

Format in all cases: biochemical
For assay [1], the target named is T1, MaeB (hybrid malic enzyme, Bd1833/MaeB) (Bdellovibrio bacteriovorus, UniProt Q6MM15). In words: NADPH absorbance assay ([…] nm), dose response. On the set-up: gene mdh; full-length MaeB (Met1–Lys780), ligand-free MaeBapo.
In assay [2] the target is T2, MaeB (hybrid malic enzyme, Bd1833/MaeB) (Bdellovibrio bacteriovorus, UniProt Q6MM14+Q6MM15). The assay can be described thus: steady-state kinetics, NADPH absorbance. Set-up: gene mdh; full-length MaeB (Met1–Lys780).
Target sequence in this assay (Q6MM15 entry or part of it): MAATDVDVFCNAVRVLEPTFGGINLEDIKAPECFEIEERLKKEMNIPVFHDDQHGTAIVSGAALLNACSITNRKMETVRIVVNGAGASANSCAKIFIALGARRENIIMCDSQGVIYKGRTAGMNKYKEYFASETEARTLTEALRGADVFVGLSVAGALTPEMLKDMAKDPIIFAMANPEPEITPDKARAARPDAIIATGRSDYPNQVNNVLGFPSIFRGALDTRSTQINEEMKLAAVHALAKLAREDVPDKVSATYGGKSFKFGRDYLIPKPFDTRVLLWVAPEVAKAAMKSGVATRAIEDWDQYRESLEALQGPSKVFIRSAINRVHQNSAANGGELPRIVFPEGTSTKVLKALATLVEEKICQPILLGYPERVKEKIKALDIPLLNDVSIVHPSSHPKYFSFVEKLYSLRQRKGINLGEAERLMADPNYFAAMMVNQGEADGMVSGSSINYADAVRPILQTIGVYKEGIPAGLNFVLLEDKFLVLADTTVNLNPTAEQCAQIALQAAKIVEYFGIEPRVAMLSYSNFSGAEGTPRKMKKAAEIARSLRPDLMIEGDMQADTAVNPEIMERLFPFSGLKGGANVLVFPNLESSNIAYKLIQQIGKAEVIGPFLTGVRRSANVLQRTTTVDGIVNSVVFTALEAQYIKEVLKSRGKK
Target sequence in this assay (Q6MM14 entry or part of it): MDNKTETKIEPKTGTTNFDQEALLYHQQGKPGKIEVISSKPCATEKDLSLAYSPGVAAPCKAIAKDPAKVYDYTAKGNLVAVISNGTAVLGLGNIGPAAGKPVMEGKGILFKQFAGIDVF
Assay [3] has as its target T2, MaeB (hybrid malic enzyme, Bd1833/MaeB). The assay can be described thus: NADPH absorbance assay ([…] nm), single concentration […]. On the set-up: gene mdh; full-length MaeB (Met1–Lys780). Particulars: read-out: % of uninhibited activity at 2 mM.
Target sequence in this assay (Q6MM15 entry or part of it): as the sequence (Q6MM15 entry or part of it) above
Target sequence in this assay (Q6MM14 entry or part of it): as the sequence (Q6MM14 entry or part of it) above
In assay [4] the target is T1, MaeB (hybrid malic enzyme, Bd1833/MaeB). In words: X-ray crystal structures of PTA domain and full-length; HPLC of co-purified ligand; enzyme inhibition kinetics (IC50 […]). On the set-up: gene mdh; full-length MaeB (Met1–Lys780) kinetics and crystal structure (6ZNG).
The target in assay [5] is T2, MaeB (hybrid malic enzyme, Bd1833/MaeB). In words: NADPH absorbance assay ([…] nm), single concentration […] ([…] activity left). On the set-up: gene mdh; full-length MaeB and MaeBME (Met1–Ala434).
Target sequence in this assay (Q6MM14 entry or part of it): as above
Target sequence in this assay (Q6MM15 entry or part of it): as the sequence (Q6MM15 entry or part of it) above
The target is the same in assay [6]. The assay can be described thus: steady-state kinetics of reverse reductive carboxylation. Set-up: gene mdh; full-length MaeB (Met1–Lys780).
Target sequence in this assay (Q6MM15 entry or part of it): as above
Target sequence in this assay (Q6MM14 entry or part of it): as the sequence (Q6MM14 entry or part of it) above

T1 sequence (Q6MM14 entry or part of it): as above
T1 sequence (Q6MM15 entry or part of it): as the sequence (Q6MM15 entry or part of it) above

Consider `CC(C)(COP(=O)(O)OP(=O)(O)OC[C@H]1O[C@@H](n2cnc3c(N)ncnc32)[C@H](O)[C@@H]1OP(=O)(O)O)[C@@H](O)C(=O)NCCC(=O)NCCS` [CoA], for which the pIC50 in assay [1] was 4.69. Regarding `O=C(O)C[C@H](O)C(=O)O` [L-malate], in assay [2], the “steady-state kinetics, NADPH absorbance” value stood at 10000 M⁻¹ s⁻¹. With `CC(=O)OP(=O)(O)O` [acetyl phosphate], the activity at 2000 µM in assay [3] was approximately 50%.

Turning to `CC(=O)SCCNC(=O)CCNC(=O)[C@H](O)C(C)(C)COP(=O)(O)OP(=O)(O)OC[C@H]1O[C@@H](n2cnc3c(N)ncnc32)[C@H](O)[C@@H]1OP(=O)(O)O` [acetyl-CoA], the pKi in assay [4] was 6.15. Turning to `O=C(O)CC(=O)C(=O)O` [oxaloacetate], in assay [5], the “NADPH absorbance assay (340 nm), single concentration 2 mM (<10% activity left)” value is “oxaloacetate inhibited both MaeB and MaeBME activities, suggesting this effector interacts directly with the ME domain”. Consider `CC(=O)C(=O)O` [pyruvate], for which, in assay [6], the “steady-state kinetics of reverse reductive carboxylation” value was determined as 30 M⁻¹ s⁻¹.
